The text below walks through data of patent US9833497B2, “Human originated EGF domain proteins and use of the same” (CHENGDU SOURCEBIO LIMITED-LIABILITY COMPANY, priority 2013, dated 2017).

What all share (format): cell-based
One assay relates to Moraxella catarrhalis. The experiment in a line: MIC against Gram-negative bacteria: Moraxella catarrhalis. The conditions noted are these: for MIC: M. catarrhalis, 10 h cultivation at 37° C. The method, boiled down: (§1)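 MIC, the lowest recombinant protein concentration giving no bacterial growth, found by two-fold serial dilution of human EGF-domain proteins in triplicate. Inoculum 5×10^5 CFU/mL in LB from cultures at McFarland 0.5; plates incubated at 37° C, 175 rpm shaking.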

A further assay relates to Pseudomonas aeruginosa. The experiment in a line: MIC against Gram-negative bacteria: Pseudomonas aeruginosa. The conditions noted are these: for MIC: P. aeruginosa, 10 h cultivation at 37° C. In short, it runs like this:
as §1

In the next assay the test system is Proteus mirabilis. The experiment in a line: MIC against Gram-negative bacteria: Proteus mirabilis. The conditions noted are these: for MIC: P. mirabilis, 10 h cultivation at 37° C. In short, it runs like this:
as §1

The next assay relates to Citrobacter diversus. The experiment in a line: MIC against Gram-negative bacteria: Citrobacter diversus. The conditions noted are these: for MIC: C. diversus, 10 h cultivation at 37° C. The method, boiled down:
as §1

For a further assay, the system named is Klebsiella pneumonia. The experiment in a line: MIC against Gram-negative bacteria: Klebsiella pneumonia. The conditions noted are these: for MIC: K. pneumonia, 10 h cultivation at 37° C. The method, boiled down: as §1
The subject of another assay is Proteus vulgaris. The experiment in a line: MIC against Gram-negative bacteria: Proteus vulgaris. The conditions noted are these: for MIC: P. vulgaris, 10 h cultivation at 37° C. The method, boiled down: as §1
In another assay the test system is Serratia marcescens. The experiment in a line: MIC against Gram-negative bacteria: Serratia marcescens. The conditions noted are these: for MIC: S. marcescens, 10 h cultivation at 37° C. In short, it runs like this: as §1
For another assay, the system named is E. coli DH5α. The experiment in a line: Antibacterial activity: MIC and growth curve against E. coli DH5α in 96-well plate. The conditions noted are these: minimal inhibitory concentration against E. coli DH5α; 96-well plate, 5×10^5 CFU/mL, 37° C., judged after 8 h. The method, boiled down:
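MIC taken as lowest protein level with no bacterial growth, tracked by A600 every 30 min during 37 °C, 175 rpm culture. Two-fold protein series 50-12.5 μg/mL final, triplicate wells, against 5×10^5 CFU/mL of LB-washed mid-log cells.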

For a further assay, the system named is Aeromonas hydrophila. The experiment in a line: MIC against Gram-negative bacteria: Aeromonas hydrophila. The conditions noted are these: for MIC: A. hydrophila, 10 h cultivation at 37° C. The method, boiled down: as §1
In the next assay the test system is E. coli BL21. The experiment in a line: MIC against Gram-negative bacteria: E. coli BL21. The conditions noted are these: for MIC: 10 h cultivation at 37° C. In short, it runs like this: as §1
The test system of the next assay is Enterobacter cloacae. The experiment in a line: MIC against Gram-negative bacteria: Enterobacter cloacae. The conditions noted are these: for MIC: E. cloacae, 10 h cultivation at 37° C. The method, boiled down: as §1
The mark [1] stands for this setting: Moraxella catarrhalis, 96-well plate, 5×10^5 CFU/mL, 37° C., 10 h.
Setting [2] is: Pseudomonas aeruginosa, 96-well plate, 5×10^5 CFU/mL, 37° C., 10 h.
The mark [3] stands for this setting: Proteus mirabilis, 96-well plate, 5×10^5 CFU/mL, 37° C., 10 h.
Setting [4] is: Citrobacter diversus, 96-well plate, 5×10^5 CFU/mL, 37° C., 10 h.
Setting [5] is: Klebsiella pneumonia, 96-well plate, 5×10^5 CFU/mL, 37° C., 10 h.
Where [6] appears, read: Proteus vulgaris, 96-well plate, 5×10^5 CFU/mL, 37° C., 10 h.
[7] abbreviates: Serratia marcescens, 96-well plate, 5×10^5 CFU/mL, 37° C., 10 h.
[8] abbreviates: Aeromonas hydrophila, 96-well plate, 5×10^5 CFU/mL, 37° C., 10 h.
[9] abbreviates: E. coli BL21, 96-well plate, 5×10^5 CFU/mL, 37° C., 10 h.
Setting [10] is: Enterobacter cloacae, 96-well plate, 5×10^5 CFU/mL, 37° C., 10 h.
[11] abbreviates: 96-well plate, 5×10^5 CFU/mL, 37° C., 10 h.

In general, MIC refers to the smallest concentration in the dilution series that meets the test's criterion for growth inhibition. A lower MIC goes with a more susceptible organism. Take “PRT935 (NIDECASNPCLNQGTCFDDISGYTCHCVLPYTGKNCQ; listed as Homo sapiens)”: the MIC in the assay on Moraxella catarrhalis was determined as 12.5 µg/mL; in the assay with Pseudomonas aeruginosa, 25 µg/mL; in the assay on Proteus mirabilis, 12.5 µg/mL; with Citrobacter diversus it was 100 µg/mL; with Klebsiella pneumonia, 12.5 µg/mL; against Proteus vulgaris, 12.5 µg/mL. Moreover, the MIC against Serratia marcescens stood at 12.5 µg/mL; with E. coli DH5α, 12.5 µg/mL; against Aeromonas hydrophila it was 25 µg/mL; with E. coli BL21 (E. coli BL21), 25 µg/mL; against Enterobacter cloacae, 25 µg/mL.

For “PRT1326 (AINACEISNGGCSAKADCKRTTPGRRVCTCKAGYTGDGIVCL; listed as Homo sapiens)”, the “MIC against M. catarrhalis” value in the assay with Moraxella catarrhalis (setting [1]) amounted to 25 µg/mL. In the assay on Pseudomonas aeruginosa (setting [2]), the “MIC against P. aeruginosa” value was 50 µg/mL. In the assay on Proteus mirabilis (setting [3]), the “MIC against P. mirabilis” value came out at 12.5 µg/mL. In addition, in the assay on Citrobacter diversus (setting [4]), the “MIC against C. diversus” value came out at 50 µg/mL. The “MIC against K. pneumonia” value with Klebsiella pneumonia (setting [5]) stood at 12.5 µg/mL. The “MIC against P. vulgaris” value in the assay on Proteus vulgaris (setting [6]) came out at 25 µg/mL. Also, the “MIC against S. marcescens” value with Serratia marcescens (setting [7]) was found to be 50 µg/mL. For the same substance, the minimum inhibitory concentration (MIC) in the assay on E. coli DH5α stood at 50 µg/mL. The “MIC against A. hydrophila” value in the assay on Aeromonas hydrophila (setting [8]) was 12.5 µg/mL. Besides, the “MIC against E. coli BL21” value in the assay with E. coli BL21 (setting [9]) worked out at 12.5 µg/mL. Moreover, the “MIC against E. cloacae” value against Enterobacter cloacae (setting [10]) came to 50 µg/mL.

Take “PRT672 (DIDECMLFGSEICKEGKCVNTQPGYECYCKQGFYYDGNLLECV; listed as Homo sapiens)”: in the assay on Moraxella catarrhalis (setting [11]), the “MIC M. catarrhalis” value came to 12.5 µg/mL. In addition, the “MIC P. aeruginosa” value in the assay on Pseudomonas aeruginosa (setting [11]) worked out at 12.5 µg/mL. The “MIC P. mirabilis” value against Proteus mirabilis (setting [11]) was found to be 25 µg/mL. The “MIC C. diversus” value against Citrobacter diversus (setting [11]) is 25 µg/mL. Moreover, the “MIC K. pneumonia” value against Klebsiella pneumonia (setting [11]) worked out at 25 µg/mL. In addition, in the assay with Proteus vulgaris (setting [11]), the “MIC P. vulgaris” value turned out to be 50 µg/mL. Besides, the “MIC S. marcescens” value with Serratia marcescens (setting [11]) turned out to be 12.5 µg/mL. This substance registered an MIC with E. coli DH5α of 12.5 µg/mL. The “MIC A. hydrophila” value with Aeromonas hydrophila (setting [11]) is 12.5 µg/mL. Besides, the “MIC E. coli BL21” value in the assay on E. coli BL21 (setting [11]) worked out at 25 µg/mL. The “MIC E. cloacae” value with Enterobacter cloacae (setting [11]) worked out at 12.5 µg/mL.

Turning to “PRT1302 (QTSPCDQYECQNGAQCIVVQQEPTCRCPPGFAGPRCE; listed as Homo sapiens)”, the “MIC against M. catarrhalis” value in the assay on Moraxella catarrhalis (setting [1]) worked out at 12.5 µg/mL. For the same substance, in the assay on Pseudomonas aeruginosa (setting [2]), the “MIC against P. aeruginosa” value is 12.5 µg/mL. The “MIC against P. mirabilis” value against Proteus mirabilis (setting [3]) was 25 µg/mL. Moreover, in the assay on Citrobacter diversus (setting [4]), the “MIC against C. diversus” value was found to be 50 µg/mL. Further, the “MIC against K. pneumonia” value with Klebsiella pneumonia (setting [5]) was 50 µg/mL. The “MIC against P. vulgaris” value against Proteus vulgaris (setting [6]) came out at 50 µg/mL. In addition, the “MIC against S. marcescens” value in the assay with Serratia marcescens (setting [7]) stood at 25 µg/mL. This substance also gave an MIC against E. coli DH5α of 12.5 µg/mL. The “MIC against A. hydrophila” value against Aeromonas hydrophila (setting [8]) was 12.5 µg/mL. For the same substance, in the assay on E. coli BL21 (setting [9]), the “MIC against E. coli BL21” value amounted to 50 µg/mL. In addition, the “MIC against E. cloacae” value in the assay on Enterobacter cloacae (setting [10]) worked out at 25 µg/mL.

With “PRT504 (CDCSGNVDPSEAGHCDSVTGECLKCLGNTDGAHCERCADGFYGDAVTAKNCRA; listed as Homo sapiens)”, the “MIC against M. catarrhalis” value against Moraxella catarrhalis (setting [11]) was found to be 25 µg/mL. Also, the “MIC against P. aeruginosa” value against Pseudomonas aeruginosa (setting [11]) was 12.5 µg/mL. Besides, the “MIC against P. mirabilis” value in the assay with Proteus mirabilis (setting [11]) stood at 12.5 µg/mL. In addition, in the assay on Citrobacter diversus (setting [11]), the “MIC against C. diversus” value amounted to 50 µg/mL. Moreover, the “MIC against K. pneumonia” value in the assay on Klebsiella pneumonia (setting [11]) amounted to 50 µg/mL. In the assay with Proteus vulgaris (setting [11]), the “MIC against P. vulgaris” value came to 50 µg/mL. Further, in the assay with Serratia marcescens (setting [11]), the “MIC against S. marcescens” value is 12.5 µg/mL. In the assay on E. coli DH5α, this substance displayed an MIC of 12.5 µg/mL. The “MIC against A. hydrophila” value in the assay on Aeromonas hydrophila (setting [11]) turned out to be 25 µg/mL. Besides, the “MIC against E. coli BL21” value in the assay on E. coli BL21 (setting [11]) worked out at 50 µg/mL. Moreover, the “MIC against E. cloacae” value against Enterobacter cloacae (setting [11]) stood at 12.5 µg/mL.

Turning to “PRT916 (QADPCASNPCANGGQCLPFEASYICHCPPSFHGPTCR; listed as Homo sapiens)”, the MIC in the assay with Moraxella catarrhalis is 12.5 µg/mL; against Pseudomonas aeruginosa, 50 µg/mL; with Proteus mirabilis, 25 µg/mL; against Citrobacter diversus it was 25 µg/mL; against Klebsiella pneumonia, 25 µg/mL; in the assay on Proteus vulgaris, 50 µg/mL. The MIC was found to be 12.5 µg/mL in the assay on Serratia marcescens; 25 µg/mL against E. coli DH5α; 50 µg/mL in the assay with Aeromonas hydrophila; 12.5 µg/mL against E. coli BL21 (E. coli BL21); 12.5 µg/mL in the assay on Enterobacter cloacae.
